Patent US20260248924A1, “MITOCHONDRIA-TARGETED AGENTS FOR DISEASE PREVENTION AND TREATMENT” (THE METHODIST HOSPITAL, priority 2023, published 2026)
Entries after “also recorded” stand apart in the source; their conditions may differ.

Columns and labels:
[1] = test system: H2030-BrM3 cells; assay: Lung cancer brain metastasis model (left ventricle injection); assay type: in vivo, NOD/SCID mice; conditions: PEITC at 25-fold higher dose (printed 100 mol/kg), oral gavage
Protocol: Mice were imaged for luciferase expression as a marker of tumor growth, using an IVIS 100 imaging system, over five weeks after cell injection. Regions of interest were defined manually, and LivingImage and Igor software was used to determine total photon flux.
For the brain metastasis studies, female NOD/SCID mice (age 5 weeks) were used. H2030-BrM3 cells (2×10^5) were suspended in PBS (0.1 mL) and injected into the left ventricle under ultrasound guidance (ECHO 707, GE, Milwaukee, WI). […] Mice were treated by oral gavage 5 days per week and metastases were monitored periodically by bioluminescence. Mice were euthanized at day 28 after the arterial injection of tumor cells.

[2] = test system: H2030-BrM3 cells; assay: Orthotopic model of lung adenocarcinoma; assay type: in vivo, nude mice; conditions: 4 μmol/kg, oral gavage 5 days/week for 3 weeks
Protocol: An orthotopic model of lung adenocarcinoma cells (H2030-BrM3 cells) in athymic nude mice was used. Nude mice (5 weeks old) were anesthetized with isoflurane and placed in the right lateral decubitus position. A total of 1×10^6 H2030-BrM3 cells in […] of growth factor reduced Matrigel in 50 μL of RPMI1640 medium were injected into the left lung through the left rib cage. […] Tumor growth and metastases were monitored over time by bioluminescence (after injection of D-luciferin, 150 μg/g) using Lumina IVIS 100 imager (Perkin Elmer, Waltham, MA). Mice were euthanized on day 28.
A study using an orthotopic model of lung adenocarcinoma in nude mice was conducted. H2030-BrM3 cells were injected into the lung. […] PEITC was not effective, as expected, because the applied dose (4 μmol/kg) is below the levels typically used in xenograft studies (Zhang, Q., et al., Mol Carcinog, 2020. 59(6): p. 590-603).

[3] = human, in vivo; cited from earlier work
[4] = rat, in vivo; cited from earlier work
[5] = test system: VC-induced lung tumors; assay: VC-induced lung tumorigenesis study; assay type: in vivo, A/J mice; conditions: 100 μmol/kg, oral gavage 5 days/week for 20 weeks
Protocol: Six-week-old female A/J mice were injected with VC (single i.p. dose, 16 mg/kg). […] Treatments were administered by oral gavage five times per week. After 18 weeks of treatment, the mice were euthanized. […] The rest of lungs were evaluated under a dissecting microscope to obtain the surface tumor count and individual tumor diameter. Tumor volume was calculated based on the formula V=4πr(3)/3. Tumor load (the total tumor volume in each mouse) was calculated from the sum of all tumors.

[6] = test system: B(a)P-induced lung tumors; assay: B(a)P-induced lung tumorigenesis, post-initiation model; assay type: in vivo, A/J mice; conditions: 100 μmol/kg, 5 days/week, 20 weeks
[7] = test system: lung adenocarcinoma (LUAD) cell lines (H2030-BrM3, LKR-13); assay: Cellular proliferation assay (IncuCyte cell confluence), PEITC vs Mito-PEITC; assay type: cell-based; conditions: Homo sapiens, real-time cell confluence, both LUAD cell lines tested, read-out: IC50, inhibition of proliferation
[8] = in vivo; cited from earlier work
[9] = test system: lung tumorigenesis induced by benzo(a)pyrene; conditions: in vivo; cited from earlier work

S=C=NCCc1ccccc1 [PEITC, phenethyl isothiocyanate]
effect on lung cancer brain metastasis [1]: ineffective; also recorded: does not inhibit brain metastasis
effect on orthotopic lung tumor growth [2]: not effective
safety in clinical trial [3]: safe
toxicity for female rats [4]: extremely low toxicity
VC-induced lung tumor development [5]: ineffective
B(a)P-induced lung tumor development [6]: ineffective
IC50 [7]: 12 µM
blood-brain barrier passage [8]: crosses the blood-brain barrier
plasma protein binding [8]: high
efficacy against lung tumorigenesis induced by benzo(a)pyrene [9]: not effective
